Biological target: human APJ receptor (Homo sapiens (Human), UniProt P35414)
Assay: biochemical
Assay type: biochemical
Details: read-out: Activity hAPJ SPA EC50 IP
Procedure, shortened: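 Membranes from CHO cells stably expressing cloned human APJ were incubated with WGA SPA beads in 20 mM HEPES pH 7.5, 5 mM MgCl2, 0.1% BSA, 200 mM NaCl and 3 μM GDP. Reaction started with 0.2 nM [35S]GTPγS ± ligands, 90 min at RT. EC50 obtained by non-linear regression as mean of independent experiments.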

Sequence of human APJ receptor (P35414 whole entry): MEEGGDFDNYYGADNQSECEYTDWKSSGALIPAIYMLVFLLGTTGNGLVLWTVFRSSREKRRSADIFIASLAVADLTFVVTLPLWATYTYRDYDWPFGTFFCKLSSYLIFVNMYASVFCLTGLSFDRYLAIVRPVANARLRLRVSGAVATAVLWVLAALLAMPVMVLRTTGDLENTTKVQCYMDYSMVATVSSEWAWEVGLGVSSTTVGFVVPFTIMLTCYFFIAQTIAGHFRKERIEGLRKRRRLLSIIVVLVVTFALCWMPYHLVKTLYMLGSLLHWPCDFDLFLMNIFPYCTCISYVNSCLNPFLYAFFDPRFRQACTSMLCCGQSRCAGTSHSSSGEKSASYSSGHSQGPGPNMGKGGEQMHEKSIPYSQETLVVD

Compound | EC50 [pM]
COc1cccc(-c2nnc(NS(=O)(=O)C[C@H](O)c3ccc(F)cn3)n2-c2c(OC)cccc2OC)n1 (single isomer, unassigned) [Example 316.0, (2R)—N-(4-(2,6-dimethoxyphenyl)-5-(6-methoxy-2-pyridinyl)-4H-1,2,4-triazol-3-yl)-2-(5-fluoro-2-pyridinyl)-2-hydroxyethanesulfonamide or (2S)—N-(4-(2,6-dimethoxyphenyl)-5-(6-methoxy-2-pyridinyl)-4H-1,2,4-triazol-3-yl)-2-(5-fluoro-2-pyridinyl)-2-hydroxyethanesulfonamide] | 500
COc1cccc(-c2nnc(NS(=O)(=O)C[C@H](O)c3ccc(F)cn3)n2-c2c(OC)cccc2OC)n1 (single isomer, unassigned) [Example 317.0, (2R)—N-(4-(2,6-dimethoxyphenyl)-5-(6-methoxy-2-pyridinyl)-4H-1,2,4-triazol-3-yl)-2-(5-fluoro-2-pyridinyl)-2-hydroxyethanesulfonamide or (2S)—N-(4-(2,6-dimethoxyphenyl)-5-(6-methoxy-2-pyridinyl)-4H-1,2,4-triazol-3-yl)-2-(5-fluoro-2-pyridinyl)-2-hydroxyethanesulfonamide] | 530
COc1cccc(-c2nnc(NS(=O)(=O)C[C@H](OC)c3ccc(F)cn3)n2-c2c(OC)cccc2OC)n1 (single isomer, unassigned) [Example 329.0, (2R)—N-(4-(2,6-dimethoxyphenyl)-5-(6-methoxy-2-pyridinyl)-4H-1,2,4-triazol-3-yl)-2-(5-fluoro-2-pyridinyl)-2-methoxyethanesulfonamide or (2S)—N-(4-(2,6-dimethoxyphenyl)-5-(6-methoxy-2-pyridinyl)-4H-1,2,4-triazol-3-yl)-2-(5-fluoro-2-pyridinyl)-2-methoxyethanesulfonamide] | 230
COc1cccc(-c2nnc(NS(=O)(=O)C[C@H](OC)c3ccc(F)cn3)n2-c2c(OC)cccc2OC)n1 (single isomer, unassigned) [Example 330.0, (2R)—N-(4-(2,6-dimethoxyphenyl)-5-(6-methoxy-2-pyridinyl)-4H-1,2,4-triazol-3-yl)-2-(5-fluoro-2-pyridinyl)-2-methoxyethanesulfonamide or (2S)—N-(4-(2,6-dimethoxyphenyl)-5-(6-methoxy-2-pyridinyl)-4H-1,2,4-triazol-3-yl)-2-(5-fluoro-2-pyridinyl)-2-methoxyethanesulfonamide] | 300
COc1cccc(-c2nnc(NS(=O)(=O)C[C@H](O)c3ccc(C#N)cn3)n2-c2c(OC)cccc2OC)n1 (single isomer, unassigned) [Example 332.0, (R)-2-(5-cyanopyridin-2-yl)-N-(4-(2,6-dimethoxyphenyl)-5-(6-methoxypyridin-2-yl)-4H-1,2,4-triazol-3-yl)-2-hydroxyethanesulfonamide or (S)-2-(5-cyanopyridin-2-yl)-N-(4-(2,6-dimethoxyphenyl)-5-(6-methoxypyridin-2-yl)-4H-1,2,4-triazol-3-yl)-2-hydroxyethanesulfonamide] | 560
COc1cccc(OC)c1-n1c(NS(=O)(=O)[C@@H](C)[C@@H](O)c2ccc(C#N)cc2F)nnc1-c1cncc(C)c1 (single isomer, unassigned) [Example 343.0] | 64000
COc1cccc(OC)c1-n1c(NS(=O)(=O)[C@@H](C)[C@@H](O)c2ccc(C#N)cc2F)nnc1-c1cncc(C)c1 (single isomer, unassigned) [Example 344.0] | 600
COc1cccc(OC)c1-n1c(NS(=O)(=O)[C@@H](C)[C@H](OC)c2ccc(F)cn2)nnc1-c1cncc(C)c1 (single isomer, unassigned) [Example 351.0] | 870
COc1cccc(OC)c1-n1c(NS(=O)(=O)[C@@H](C)[C@H](OC)c2ccc(F)cn2)nnc1-c1cncc(C)c1 (single isomer, unassigned) [Example 352.0] | 320
COc1cccc(OC)c1-n1c(NS(=O)(=O)[C@@H](C)[C@H](OC)c2ccc(F)cn2)nnc1-c1cncc(C)c1 (single isomer, unassigned) [Example 353.0] | 100000
COc1cccc(OC)c1-n1c(NS(=O)(=O)[C@H](C)[C@H](O)c2ncc(F)cn2)nnc1-c1cncc(C)c1 (single isomer, unassigned) [Example 358.0, (1R,2R)—N-(4-(2,6-dimethoxyphenyl)-5-(5-methylpyridin-3-yl)-4H-1,2,4-triazol-3-yl)-1-(5-fluoropyrimidin-2-yl)-1-hydroxypropane-2-sulfonamide or (1S,2S)—N-(4-(2,6-dimethoxyphenyl)-5-(5-methylpyridin-3-yl)-4H-1,2,4-triazol-3-yl)-1-(5-fluoropyrimidin-2-yl)-1-hydroxypropane-2-sulfonamide] | 69000
COc1cccc(OC)c1-n1c(NS(=O)(=O)[C@H](C)[C@@H](OCCO)c2ncc(C)cn2)nnc1-c1cncc(C)c1 (single isomer, unassigned) [Example 394.0, (1S,2R)—N-(4-(2,6-dimethoxyphenyl)-5-(5-methylpyridin-3-yl)-4H-1,2,4-triazol-3-yl)-1-(2-hydroxyethoxy)-1-(5-methylpyrimidin-2-yl)propane-2-sulfonamide or (1R,2S)—N-(4-(2,6-dimethoxyphenyl)-5-(5-methylpyridin-3-yl)-4H-1,2,4-triazol-3-yl)-1-(2-hydroxyethoxy)-1-(5-methylpyrimidin-2-yl)propane-2-sulfonamide] | 12000
COc1cccc(OC)c1-n1c(NS(=O)(=O)[C@H](C)[C@@H](OCCO)c2ncc(C)cn2)nnc1-c1cncc(C)c1 (single isomer, unassigned) [Example 395.0, (1S,2R)—N-(4-(2,6-dimethoxyphenyl)-5-(5-methylpyridin-3-yl)-4H-1,2,4-triazol-3-yl)-1-(2-hydroxyethoxy)-1-(5-methylpyrimidin-2-yl)propane-2-sulfonamide or (1R,2S)—N-(4-(2,6-dimethoxyphenyl)-5-(5-methylpyridin-3-yl)-4H-1,2,4-triazol-3-yl)-1-(2-hydroxyethoxy)-1-(5-methylpyrimidin-2-yl)propane-2-sulfonamide] | 110
COc1cccc(OC)c1-n1c(NS(=O)(=O)[C@H](C)[C@@H](OC[C@H](C)O)c2ncc(C)cn2)nnc1-c1cncc(C)c1 (single isomer, unassigned) [Example 400.0] | 17000
COc1cccc(OC)c1-n1c(NS(=O)(=O)[C@H](C)[C@@H](OC[C@H](C)O)c2ncc(C)cn2)nnc1-c1cncc(C)c1 (single isomer, unassigned) [Example 401.0] | 21000
COc1cccc(OC)c1-n1c(NS(=O)(=O)[C@H](C)[C@@H](OC[C@H](C)O)c2ncc(C)cn2)nnc1-c1cncc(C)c1 (single isomer, unassigned) [Example 402.0] | 860
COc1cccc(OC)c1-n1c(NS(=O)(=O)[C@H](C)[C@@H](OC[C@H](C)O)c2ncc(C)cn2)nnc1-c1cncc(C)c1 (single isomer, unassigned) [Example 403.0] | 210
COc1cccc(OC)c1-n1c(NS(=O)(=O)[C@@H](C)[C@@H](OCCO)c2ncc(C)cn2)nnc1-c1cncc(C)c1 (single isomer, unassigned) [Example 408.0, (1S,2S)—N-(4-(2,6-dimethoxyphenyl)-5-(5-methylpyridin-3-yl)-4H-1,2,4-triazol-3-yl)-1-(2-hydroxyethoxy)-1-(5-methylpyrimidin-2-yl)propane-2-sulfonamide or (1R,2R)—N-(4-(2,6-dimethoxyphenyl)-5-(5-methylpyridin-3-yl)-4H-1,2,4-triazol-3-yl)-1-(2-hydroxyethoxy)-1-(5-methylpyrimidin-2-yl)propane-2-sulfonamide] | 880
COc1cccc(OC)c1-n1c(NS(=O)(=O)[C@@H](C)[C@@H](OCCO)c2ncc(C)cn2)nnc1-c1cncc(C)c1 (single isomer, unassigned) [Example 409.0, (1S,2S)—N-(4-(2,6-dimethoxyphenyl)-5-(5-methylpyridin-3-yl)-4H-1,2,4-triazol-3-yl)-1-(2-hydroxyethoxy)-1-(5-methylpyrimidin-2-yl)propane-2-sulfonamide or (1R,2R)—N-(4-(2,6-dimethoxyphenyl)-5-(5-methylpyridin-3-yl)-4H-1,2,4-triazol-3-yl)-1-(2-hydroxyethoxy)-1-(5-methylpyrimidin-2-yl)propane-2-sulfonamide] | 29000
COc1cccc(-c2nnc(NS(=O)(=O)[C@H](C)[C@@H](OCCO)c3ncc(C)cn3)n2-c2c(OC)cccc2OC)n1 (single isomer, unassigned) [Example 415.0, (1S,2R)—N-(4-(2,6-dimethoxyphenyl)-5-(6-methoxypyridin-2-yl)-4H-1,2,4-triazol-3-yl)-1-(2-hydroxyethoxy)-1-(5-methylpyrimidin-2-yl)propane-2-sulfonamide or (1R,2S)—N-(4-(2,6-dimethoxyphenyl)-5-(6-methoxypyridin-2-yl)-4H-1,2,4-triazol-3-yl)-1-(2-hydroxyethoxy)-1-(5-methylpyrimidin-2-yl)propane-2-sulfonamide] | 8900
COc1cccc(-c2nnc(NS(=O)(=O)[C@H](C)[C@@H](OCCO)c3ncc(C)cn3)n2-c2c(OC)cccc2OC)n1 (single isomer, unassigned) [Example 416.0, (1S,2R)—N-(4-(2,6-dimethoxyphenyl)-5-(6-methoxypyridin-2-yl)-4H-1,2,4-triazol-3-yl)-1-(2-hydroxyethoxy)-1-(5-methylpyrimidin-2-yl)propane-2-sulfonamide or (1R,2S)—N-(4-(2,6-dimethoxyphenyl)-5-(6-methoxypyridin-2-yl)-4H-1,2,4-triazol-3-yl)-1-(2-hydroxyethoxy)-1-(5-methylpyrimidin-2-yl)propane-2-sulfonamide] | 260
